Experiments:
[1] = system: Salmonella; assay: Ames test (downscaled preincubation version); type: cell-based; details: downscaled standard preincubation Ames test
Procedure: Ames Test was performed as a downscaled version of the standard preincubation Ames test and adapted from the method described by Kado et al. with some modifications e.g. Maron. D. M. and B. N. Ames (1983). Revised methods for the Salmonella mutagenicity test. Mutation Research, 113, 173-215. N. Y. Kado, D. Langley and E. Eisenstadt A simple modification of the Salmonella liquid-incubation assay. Increased sensitivity for detecting mutagens in human urine, Mutat Res 121 (1983) 25-32.

[2] = target: human PDE10A (Homo sapiens (Human), UniProt Q9Y233); assay: human PDE10A full length Scintillation Proximity Assay (SPA); type: biochemical; details: 50 nM cGMP + 50 nM [3H]-cGMP, 20 minutes at room temperature, read-out: PDE10A inhibition IC50
human PDE10A, sequence (Q9Y233 other isoform, or with tags, fused parts or gaps): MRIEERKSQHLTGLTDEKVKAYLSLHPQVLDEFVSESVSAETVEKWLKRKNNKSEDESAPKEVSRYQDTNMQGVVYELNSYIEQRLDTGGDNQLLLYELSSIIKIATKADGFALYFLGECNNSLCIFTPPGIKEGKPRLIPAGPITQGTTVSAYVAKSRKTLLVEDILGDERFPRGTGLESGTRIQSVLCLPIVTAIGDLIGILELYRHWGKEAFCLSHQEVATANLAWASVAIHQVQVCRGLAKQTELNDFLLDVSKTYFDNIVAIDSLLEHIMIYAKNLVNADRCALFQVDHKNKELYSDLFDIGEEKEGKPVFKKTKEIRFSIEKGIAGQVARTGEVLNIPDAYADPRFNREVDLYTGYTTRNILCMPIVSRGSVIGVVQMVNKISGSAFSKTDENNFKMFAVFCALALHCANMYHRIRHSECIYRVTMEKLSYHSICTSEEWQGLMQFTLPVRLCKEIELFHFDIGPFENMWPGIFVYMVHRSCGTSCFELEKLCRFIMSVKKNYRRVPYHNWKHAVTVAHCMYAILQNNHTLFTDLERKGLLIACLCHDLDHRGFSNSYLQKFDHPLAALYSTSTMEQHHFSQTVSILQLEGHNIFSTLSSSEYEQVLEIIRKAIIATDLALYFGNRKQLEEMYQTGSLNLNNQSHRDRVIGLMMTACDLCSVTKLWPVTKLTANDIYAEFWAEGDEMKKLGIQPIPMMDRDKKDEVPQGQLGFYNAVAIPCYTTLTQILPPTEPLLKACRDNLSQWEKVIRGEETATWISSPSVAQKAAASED
Procedure: The following test was carried out in order to determine the activity of the compounds of the present invention. […] The human PDE10A full length assay was performed in 96-well micro titer plates. […] A range of concentrations of the potential inhibitor was used to generate data for calculating the concentration of inhibitor resulting in 50% of the effect (e.g. […] Non-specific activity was tested without the enzyme. The reaction was initiated by the addition of the substrate solution (cGMP and [^3H]-cGMP) and allowed to progress for 20 minutes at room temperature. The reaction was terminated by adding 25 μl of YSi-SPA scintillation beads (GE Healthcare, cat. # RPNQ0150) in 18 mM zinc sulphate solution (stop reagent). […] Afterwards, radioactive counts were measured on a Perkin Elmer Top-Count Scintillation plate reader.

| Compound | melting point | Ames test [1] | IC50 [2] |
| --- | --- | --- | --- |
| Cn1ncc(C(=O)N2CCC2)c1C(=O)Nc1ccc2nc(-c3ccccc3)nn2c1 [Example 3, 4-(Azetidine-1-carbonyl)-2-methyl-2H-pyrazole-3-carboxylic acid (2-phenyl-[1,2,4]triazolo[1,5-a]pyridin-6-yl)-amide] | 235 to 236 °C | negative | 0.6 nM |
| Cn1ncc(C(=O)N2CCOCC2)c1C(=O)Nc1ccc2nc(-c3ccccc3)nn2c1 [Example 5, 1-Methyl-4-(morpholine-4-carbonyl)-N-(2-phenyl-[1,2,4]triazolo[1,5-a]pyridin-6-yl)-1H-pyrazole-5-carboxamide] | 183 to 185 °C | negative | 2.5 nM |
| CN(C(=O)c1cnn(C)c1C(=O)Nc1ccc2nc(-c3cccnc3)nn2c1)C1CC1 [Example 11, N4-Cyclopropyl-N4,1-dimethyl-N5-(2-(pyridin-3-yl)-[1,2,4]triazolo[1,5-a]pyridin-6-yl)-1H-pyrazole-4,5-dicarboxamide] | 237 °C | negative | 6.7 nM |
| Cn1ncc(C(=O)N2CCCC2)c1C(=O)Nc1ccc2nc(-c3cccnc3)nn2c1 [Example 12, 1-Methyl-N-(2-(pyridin-3-yl)-[1,2,4]triazolo[1,5-a]pyridin-6-yl)-4-(pyrrolidine-1-carbonyl)-1H-pyrazole-5-carboxamide] | 251 °C |  | 17.9 nM |
| Cn1ncc(C(=O)N2CCCC2)c1C(=O)Nc1ccc2nc(N3CCOCC3)nn2c1 [Example 13, 2-Methyl-4-(pyrrolidine-1-carbonyl)-2H-pyrazole-3-carboxylic acid (2-morpholin-4-yl-[1,2,4]triazolo[1,5-a]pyridin-6-yl)-amide] | 185 °C |  | 15.4 nM |
| Cn1ncc(C(=O)N2CCC2)c1C(=O)Nc1ccc2nc(N3CCOCC3)nn2c1 [Example 15] |  | negative |  |
| CN(C(=O)c1cnn(C)c1C(=O)Nc1ccc2nc(N3CCOCC3)nn2c1)C1CC1 [Example 18, 2-Methyl-2H-pyrazole-3,4-dicarboxylic acid 4-(cyclopropyl-methyl-amide) 3-[(2-morpholin-4-yl-[1,2,4]triazolo[1,5-a]pyridin-6-yl)-amide]] | 172 °C |  | 7.2 nM |
| CN(C)c1nc2ccc(NC(=O)c3c(C(=O)N4CCOCC4)cnn3C)cn2n1 [Example 19, 2-Methyl-4-(morpholine-4-carbonyl)-2H-pyrazole-3-carboxylic acid (2-dimethylamino-[1,2,4]triazolo[1,5-a]pyridin-6-yl)-amide] |  | negative | 36 nM |
| CN(C)c1nc2ccc(NC(=O)c3c(C(=O)N4CCC4)cnn3C)cn2n1 [Example 20, 4-(Azetidine-1-carbonyl)-2-methyl-2H-pyrazole-3-carboxylic acid (2-dimethylamino-[1,2,4]triazolo[1,5-a]pyridin-6-yl)-amide] |  | negative | 8.2 nM |

Source: patent US9227970B2, “Triazolopyridine compounds” (Hoffmann-La Roche Inc., priority 2011, dated 2016)
